Calls of active or inactive are those of the source. No cut-off for these calls is given here.

One data set deals with HEK293. The data set is described as follows: Cytotoxicity against HEK293 cells at 20 uM incubated for 24 hrs by MTT assay. Format: toxicity, cell-based. The conditions noted are these: human, hek293, 24 h. In general terms: Tetrazolium assays rely on reduction of a dye to a coloured formazan, in cell work by metabolically active cells.
For data set [1], the target named is T1, NAD-dependent protein deacetylase sirtuin-1 (Homo sapiens) (UniProt Q96EB6).
T1 sequence (whole entry): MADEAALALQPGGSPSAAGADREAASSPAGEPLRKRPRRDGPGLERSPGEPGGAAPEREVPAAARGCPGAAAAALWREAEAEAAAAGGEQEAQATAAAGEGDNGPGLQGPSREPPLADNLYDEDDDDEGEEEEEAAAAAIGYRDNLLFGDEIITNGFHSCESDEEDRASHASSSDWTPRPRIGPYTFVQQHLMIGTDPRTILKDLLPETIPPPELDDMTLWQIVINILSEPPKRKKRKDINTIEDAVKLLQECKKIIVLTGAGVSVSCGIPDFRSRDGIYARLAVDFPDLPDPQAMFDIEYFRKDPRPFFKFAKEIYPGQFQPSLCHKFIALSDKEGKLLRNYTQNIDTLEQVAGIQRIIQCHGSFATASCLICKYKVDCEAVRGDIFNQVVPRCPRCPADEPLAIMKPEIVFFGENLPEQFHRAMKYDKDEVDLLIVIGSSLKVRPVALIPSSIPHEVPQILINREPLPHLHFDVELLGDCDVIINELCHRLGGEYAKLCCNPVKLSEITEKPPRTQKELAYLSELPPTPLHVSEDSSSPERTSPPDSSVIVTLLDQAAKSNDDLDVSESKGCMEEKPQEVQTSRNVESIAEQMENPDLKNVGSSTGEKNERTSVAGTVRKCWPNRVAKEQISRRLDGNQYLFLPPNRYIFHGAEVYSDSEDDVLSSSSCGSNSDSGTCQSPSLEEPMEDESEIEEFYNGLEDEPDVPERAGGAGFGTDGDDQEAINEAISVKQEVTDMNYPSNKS
The data set is described as follows: Activation of SIRT1 deacetylation (unknown origin) transfected in HEK293 cells cotransfected with PG13-Luc/myc-tagged p53/flag-tagged Sirt1/RSV-beta-galactosidase assessed as decrease in luciferase activity at 10 uM incubated for 24 hrs by firefly luciferase assay. Format: cell-based.

For data set [2], the target named is T1, NAD-dependent protein deacetylase sirtuin-1 (Homo sapiens). The data set is described as follows: Activation of SIRT1 deacetylation (unknown origin) transfected in HEK293 cells cotransfected with PG13-Luc/myc-tagged p53/flag-tagged Sirt1/RSV-beta-galactosidase assessed as decrease in luciferase activity at 20 uM incubated for 24 hrs by firefly luciferase assay relative to control. The note with it: filed as activator. Also on record: scale not given: the % may be the effect or the level left. Type of data set: cell-based.

The target is the same in data set [3]. In words: Activation of SIRT1 deacetylation (unknown origin) in flag tagged Sirt1 overexpressed HEK293 cells assessed as increase in NAD+/NADH ratio incubated for 12 hrs by fluorescence microplate reader analysis. The conditions noted are these: filed as activator, dose 10-20 µM. Type of data set: cell-based.
The target is the same in data set [4]. In words: Activation of SIRT1 deacetylation (unknown origin) transfected in HEK293 cells cotransfected with PG13-Luc/myc-tagged p53/flag-tagged Sirt1/RSV-beta-galactosidase assessed as decrease in luciferase activity incubated for 24 hrs by firefly luciferase assay. Format: cell-based. The note with it: filed as activator, dose 10-20 µM.

Turning to `O=C(C[C@H]1C(=O)Nc2ccccc21)OC[C@H]1O[C@@H](OCCc2ccc(O)cc2)[C@H](O)[C@@H](O)[C@@H]1O`, the figures for the Activity entry (in the data set with HEK293; in data set [2]) were “Non-Toxic” and 65%, respectively. Besides, in data set [1], the outcome was inactive.
As to `O=C(C[C@@H]1C(=O)Nc2ccccc21)OC[C@H]1O[C@@H](OCCc2ccc(O)c(O)c2)[C@H](O)[C@@H](O)[C@@H]1O`, in the data set with HEK293, the Activity entry is “Non-Toxic”.
Consider `CO[C@]1(CC(=O)OC[C@H]2O[C@@H](OCCc3ccc(O)cc3)[C@H](O)[C@@H](O)[C@@H]2O)OC(=O)Nc2ccccc21`, for which the Activity entry in the data set with HEK293 is “Non-Toxic”.
With `O=C(C[C@@H]1C(=O)Nc2ccccc21)OC[C@H]1O[C@@H](OCCc2ccc(O)cc2)[C@H](O)[C@@H](O)[C@@H]1O`, the Activity entry was “Non-Toxic” with HEK293, “Dose-Dependent Effect” in data set [3], “Dose-Dependent Effect” in data set [4] and 45% in data set [2]. Besides, the outcome in data set [1] (filed as activator) was Active.
On to `O=C(/C=C1/C(=O)Nc2ccccc21)OC[C@H]1O[C@@H](OCCc2ccc(O)cc2)[C@H](O)[C@@H](O)[C@@H]1O`, for which, in the data set with HEK293, the Activity entry is given as “Non-Toxic”.
The same measure, in the same setting: in the case of `CC1=CC[C@@H](C(C)(C)O[C@@H]2O[C@H](CO)[C@@H](O)[C@H](O)[C@H]2O)CC1` it was “Non-Toxic”.
Turning to `O=C(C[C@H]1C(=O)Nc2ccccc21)OC[C@H]1O[C@@H](OCCc2ccc(O)c(O)c2)[C@H](O)[C@@H](O)[C@@H]1O`, the Activity result in the data set with HEK293 was “Non-Toxic”.
For `O=C(C[C@]1(O)C(=O)Nc2ccccc21)OC[C@H]1O[C@@H](OCCc2ccc(O)cc2)[C@H](O)[C@@H](O)[C@@H]1O`, in the data set with HEK293, the Activity entry was “Non-Toxic”.
For the molecule `O=C(C[C@@]1(O)C(=O)Nc2ccccc21)OC[C@H]1O[C@@H](OCCc2ccc(O)cc2)[C@H](O)[C@@H](O)[C@@H]1O`, the Activity result in the data set with HEK293 is given as “Non-Toxic”.
The same measure, in the same setting: to `OC[C@@H](O)[C@@H](O)[C@H](O)[C@H](O)[C@@H](O)CO` belongs “Non-Toxic”.
Still for that read-out and setting: to `CO[C@@]1(CC(=O)OC[C@H]2O[C@@H](OCCc3ccc(O)cc3)[C@H](O)[C@@H](O)[C@@H]2O)OC(=O)Nc2ccccc21` belongs “Non-Toxic”.
